From patent publication US20050003449A1, “Method for determining molecular affinities for human serum albumin” (priority 2003, published 2005) come the findings set out here.

For one assay, the target named is HSA (fraction V) (Homo sapiens, UniProt P02768). Nature of the assay: biochemical.
In another assay the target is T1, HSA (V) (Homo sapiens, UniProt P02768).
T1 construct: Human serum albumin, fraction V, with a purity ≧95% as indicated by cellulose acetate electrophoresis; purchased Calbiochem 12666
Nature of the assay: Isothermal titration calorimetry of the probe with HSA. Format: binding. Conditions: ITC, PBS. How it is done:
The bottom plot represents the isothermal titrating calorimetry results integrated enthalpies and least-squares curve fit for the probe interaction with HSA (V) in PBS.
Isothermal titration calorimetry experiments were performed using an OMEGA titrating microcalorimeter from Microcal, Inc. (Northampton, Mass.). Data collection, analysis, and plotting were performed using a Windows-based software package (Origin 5.0) supplied by the instrument vendor. The titrating microcalorimeter consisted of a sample and reference cell held in an adiabatic enclosure. The calorimeter was calibrated by comparing the measured areas of applied heat pulses to known values. Known and experimentally measured values agreed to within 2%.
The probe was prepared in DMSO at 10 mM and diluted to 500 μM in PBS. the probe and HSA solutions were degassed prior to analysis. The reference cell was filled with PBS. A 20 μM solution of HSA in PBS was placed in the 1.37 mL sample cell and the probe (0.5 mM) was held in a 250 μL syringe. Thirty injections (6 μL each) of the probe were made by a computer-controlled stepper motor into the sample cell filled with HSA held at 37° C. The syringe stir rate was 400 rpm. The heat adsorbed or released with each injection was measured by a thermoelectric device connected to a Microcal nanovolt preamplifier. Titration isotherms for the binding interactions were comprised of the differential heat flow for each injection. Heats of dilution obtained by injecting ligand into dialysate buffer were minor but were subtracted prior to fitting the data. Isotherms fit well to a single site model (Wiseman, T., et. al. Anal. Biochem (1989) 179, 131-137) using an iterative nonlinear least-squares algorithm included with the instrument.
All parameters were floated during the iterations until a minimum %^2 was obtained between experimental and fit data. […] The change in free energy (ΔG) and change in entropy (ΔS) were determined using the Gibbs' free energy equation. […]
(In general: ITC needs no label: the signal is the heat of the interaction.)

Structures are written as SMILES.

As to `Cn1c(/C=C/c2ccc(C#N)cc2C(=O)O)cc2ccccc21` [the probe, 5-cyano-2-[(E)-2-(1-methyl-1H-indol-2-yl)ethenyl]benzoic acid], the Kd is 0.39 µM on HSA (fraction V) and 15 µM on HSA (V) (read-out: average affinity for all binding interactions). For the same molecule, on HSA (V), the “enthalpy change for the interaction” value is -10.4 kcal/M. The “molecules of the probe bound per HSA (stoichiometry)” value on HSA (V) (single-site model) was “approximately 2”.
